Assay results taken from patent US8933019B2, “Antiviral cell-penetrating peptides” (priority 2008, dated 2015).
Where two headings read alike, the source gives them in different places. Bridge positions count the residues as written; N and C are the ends. Square brackets hold non-standard residues; d marks the D form. Peptide text beside a SMILES is read from it. R8 = C=CCCCCCC[C@@](C)(N)C(=O)O; S5 = C=CCCC[C@](C)(N)C(=O)O

How the values were obtained:
HIV-1 IIIB [1] = test system: HIV-1 IIIB
Method: (§1) The inhibitory activity of NYAD-201, and related stapled peptides on infection by laboratory-adapted HIV-1 strains was determined as previously described (Jiang et al. J Exp. Med 174:1557-1563, 1991) with minor modifications. Azidothymidine (AZT) was used as a positive control in the infectivity assays. In brief, 1×10^4 MT-2 cells were infected with HIV-1 at 100 TCID50 (50% tissue culture infective dose) (0.01 MOI [multiplicity of infection]) in 200 μl RPMI 1640 medium containing 10% FBS in the presence or absence of peptides at graded concentrations overnight. The culture supernatants were then removed and fresh media containing freshly prepared test peptide were added. On the fourth day post-infection, 100 μl of culture supernatants were collected from each well, mixed with equal volume of 5% Triton X-100 and tested for p24 antigen by ELISA.
(§2) In addition, NYAD-201, NYAD-202 and NYAD-203 were also tested using several laboratory-adapted and primary isolates in MT-2 cells and PBMC (peripheral blood mononuclear cells), respectively.

[2] = Cytotoxicity, XTT method, MT-2 cells; type: cell-based, human; details: human, read-out: CC50 (μM) ± SD, cytotoxicity in MT-2 cells
Method: (§3) Cytotoxicity of peptides in MT-2 cells and PBMC was measured by the XTT [(sodium 3′-(1-(phenylamino)-carbonyl)-3,4-tetrazolium-bis(4-methoxy-6-nitro) bezenesulfonic acid hydrate)] method as previously described (Jiang et al., 2004). Briefly, for MT-2 cells, 100 μl of a peptide at graded concentrations was added to an equal volume of cells (1×10^5 cells/ml) in 96-well plates followed by incubation at 37° C. for 4 days, which ran parallel to the neutralization assay in MT-2 (except medium was added instead of virus). In the case of PBMC, 5×10^5 cells/ml were used and the cytotoxicity was measured after 7 days. After addition of XTT (PolySciences, Inc.), the soluble intracellular formazan was quantitated colorimetrically at 450 nm 4 hr later with a reference at 620 nm. The percent of cytotoxicity and the CC50 values were calculated as above (Table 2 and Table 3).

HIV-1 AZT-R = details: read-out: IC50 (μM ± SD), HIV-1 AZT-R; RT-resistant isolate, subtype B, MT-2, coreceptor X4
Method: as §1, §2

[3] = Cytotoxicity, XTT method, PBMC; type: cell-based; details: human
Method: as §3

Jurkat cells = assay: Cytotoxicity, LDH leakage, Jurkat cells; type: cell-based; details: 30 min, 2 hr and 4 hr of exposure
Method: Cytotoxicity was also evaluated in Jurkat cells using a Promega LDH leakage detection kit. Jurkat cells were plated at 10^4 cells/well in a volume of 200 μl. The test was performed after 30 min, 2 hr and 4 hr of exposure to the NYAD-201, NYAD-202 and NYAD-203 compounds.

HIV-1 IIIB [4] = assay: Release and infectivity of HIV-1 virus released from infected MT-2 cells after treatment; type: cell-based; details: 500 nM, normalized for p24, TCID50
Method: On the fourth day post-infection, the supernatants were collected and filtered with a 0.45 μm PVDF membrane. One aliquot of the supernatants from each sample was mixed 1:1 with a solution of 5% Triton X-100 for p24 quantification, and stored at 4° C., another aliquot was immediately frozen at −80° C. and used to compare the infectivity of the viral particles released by NYAD-201 and NYAD-202 treated cells to the viral particles released by untreated cells. The protein p24 was first quantified by sandwich-ELISA, then the viral samples were normalized for the p24 content and titered to calculate the TCID50. MT-2 cells were infected with a two fold dilutions of virus from NYAD-201 and NYAD-202 treated and untreated cells. […] On the fourth day post infection supernatants were collected for p24 quantification by sandwich-ELISA and the TCID50 was calculated by the Spearman-Karber statistical method. […]
For these reasons, not only the quantity but also the quality of the viral particles released in the supernatant was evaluated. First, the p24/viral particles released in the supernatant following NYAD-201 and NYAD-202 treatment were quantified, then starting with the same amount of p24 per sample, the viruses released in the supernatant were titered. The TCID50 was calculated and expressed as percentage infectivity with respect to the untreated positive control. […]

[5] = read-out: IC50 (μM) ± SD, antiviral activity against HIV-1 IIIB, MT-2 cells, p24 production, fourth day post-infection

SMILES | IC50 (HIV-1 IIIB [1]; [5]) | CC50 at 4 days [2] | further results
CSCC[C@@H]1NC(=O)[C@H](Cc2c[nH]c3ccccc23)NC(=O)[C@@](C)(NC(=O)[C@H](CCCCN)NC(=O)[C@@H](NC(=O)[C@H](C)NC(=O)[C@H](CCC(N)=O)NC(=O)[C@H](C)N)C(C)C)CCCC=CCCC[C@@](C)(C(=O)N[C@H](C(=O)N[C@@H](CC(C)C)C(=O)N[C@@H](CC(C)C)C(=O)N[C@H](C(=O)N[C@@H](CCC(=O)O)C(=O)N[C@@H](CC(N)=O)C(=O)N[C@@H](C)C(N)=O)C(C)C)[C@@H](C)O)NC(=O)[C@H]([C@@H](C)O)NC1=O [NYAD-212, AQAVKXWMTXTLLVENA] (H-AQAVK[S5]WMT[S5]TLLVENA-NH2; staple 6-10) | 5.95 ± 0.33 µM | > 102 µM | –
CSCC[C@@H]1NC(=O)[C@H](Cc2c[nH]c3ccccc23)NC(=O)[C@@](C)(NC(=O)[C@H](CCCCN)NC(=O)[C@@H](NC(=O)[C@H](CCC(=O)O)NC(=O)[C@H](CCC(N)=O)NC(=O)[C@H](C)N)C(C)C)CCCC=CCCC[C@@](C)(C(=O)N[C@H](C(=O)N[C@@H](CC(C)C)C(=O)N[C@@H](CC(C)C)C(=O)N[C@H](C(=O)N[C@@H](C)C(=O)N[C@@H](CCCCN)C(=O)N[C@@H](CCCCN)C(=O)N[C@@H](CCCCN)C(N)=O)C(C)C)[C@@H](C)O)NC(=O)[C@H]([C@@H](C)O)NC1=O [NYAD-203, AQEVKXWMTXTLLVAKKK] (H-AQEVK[S5]WMT[S5]TLLVAKKK-NH2; staple 6-10) | 6.29 ± 0.54 µM | 13.2 ± 0.5 µM | IC50 (HIV-1 AZT-R): 11.1 ± 3.82 µM; IC50 (HIV-1 IIIB [1]; read-out: IC50 (μM ± SD), HIV-1 IIIB, laboratory strain, subtype B, MT-2, coreceptor X4): 6.29 ± 0.54 µM; CC50 at 7 days [3]: 16 ± 1.47 µM; Cytotoxicity in Jurkat cells (LDH leakage) (Jurkat cells): more toxic at the two higher doses
CC(C)C[C@H](NC(=O)[C@H](CC(C)C)NC(=O)[C@@H](NC(=O)[C@]1(C)CCCC=CCCC[C@](C)(NC(=O)[C@H](CCCCN)NC(=O)[C@H](Cc2c[nH]c3ccccc23)NC(=O)[C@H](C)NC(=O)[C@H](CCC(N)=O)NC(=O)[C@H](C)N)C(=O)N[C@@H](Cc2c[nH]c3ccccc23)C(=O)N[C@@H](C)C(=O)N[C@@H]([C@@H](C)O)C(=O)N1)[C@@H](C)O)C(=O)N[C@H](C(=O)N[C@@H](C)C(=O)N[C@@H](CCC(=O)O)C(N)=O)C(C)C [NYAD-219, AQAWKXWATXTLLVAE] (H-AQAWK[S5]WAT[S5]TLLVAE-NH2; staple 6-10) | 3.7 ± 0.06 µM | > 106 µM | –
CC[C@H](C)[C@H](N)C(=O)N[C@@H](C)C(=O)N[C@@H](CCC(N)=O)C(=O)N[C@@H](C)C(=O)N[C@@H](CCCCN)C(=O)N[C@H](C(=O)N[C@@H](CCC(=O)O)C(=O)N[C@@]1(C)CCCC=CCCC[C@@](C)(C(=O)N[C@H](C(=O)N[C@@H](CC(C)C)C(=O)N[C@@H](CC(C)C)C(=O)N[C@H](C(=O)N[C@@H](C)C(=O)N[C@@H](CC(N)=O)C(N)=O)C(C)C)[C@@H](C)O)NC(=O)[C@H]([C@@H](C)O)NC(=O)[C@H](CCSC)NC(=O)[C@H](Cc2c[nH]c3ccccc23)NC1=O)C(C)C [NYAD-223, IAQAKVEXWMTXTLLVAN] (H-IAQAKVE[S5]WMT[S5]TLLVAN-NH2; staple 8-12) | 7.2 ± 1.2 µM | > 124 µM | –
CSCC[C@@H]1NC(=O)[C@H](CCCCN)NC(=O)[C@@](C)(NC(=O)[C@H](Cc2c[nH]c3ccccc23)NC(=O)[C@@H](NC(=O)[C@H](CC(C)C)NC(=O)[C@H](CCC(N)=O)NC(=O)[C@@H](N)CCC(=O)O)C(C)C)CCCC=CCCC[C@@](C)(C(=O)N[C@@H](C)C(=O)N[C@@H](CC(C)C)C(=O)N[C@@H](C)C(=O)N[C@H](C(=O)N[C@H](C(N)=O)[C@@H](C)O)C(C)C)NC(=O)[C@H]([C@@H](C)O)NC1=O [NYAD-215, EQLVWXKMTXALAVT, reference compound] (H-EQLVW[S5]KMT[S5]ALAVT-NH2; staple 6-10) | > 56 µM | > 112 µM | –
CSCC[C@@H]1NC(=O)[C@H](Cc2c[nH]c3ccccc23)NC(=O)[C@@](C)(NC(=O)[C@H](CCCCN)NC(=O)[C@@H](NC(=O)[C@H](C)NC(=O)[C@H](CCC(N)=O)NC(=O)[C@H](C)N)C(C)C)CCCC=CCCC[C@@](C)(C(=O)N[C@H](C(=O)N[C@@H](CC(C)C)C(=O)N[C@@H](CC(C)C)C(=O)N[C@@H](CCCCN)C(=O)N[C@@H](C)C(=O)N[C@@H](CC(N)=O)C(=O)N[C@@H](C)C(=O)N[C@@H](CCC(=O)O)C(N)=O)[C@@H](C)O)NC(=O)[C@H]([C@@H](C)O)NC1=O [NYAD-214, AQAVKXWMTXTLLKANAE] (H-AQAVK[S5]WMT[S5]TLLKANAE-NH2; staple 6-10) | 17.4 ± 0.9 µM | > 48 µM | –
CSCC[C@H](NC(=O)[C@H](Cc1c[nH]c2ccccc12)NC(=O)[C@H](CC(N)=O)NC(=O)[C@H](CCCCN)NC(=O)[C@@H](NC(=O)[C@H](C)NC(=O)[C@H](CCC(N)=O)NC(=O)[C@H](C)N)C(C)C)C(=O)N[C@H](C(=O)N[C@@]1(C)CCCC=CCCC[C@@](C)(C(=O)N[C@@H](C)C(N)=O)NC(=O)[C@H](CC(C)C)NC(=O)[C@H](CC(C)C)NC(=O)[C@H]([C@@H](C)O)NC1=O)[C@@H](C)O [NYAD-218, AQAVKNWMTXTLLXA] (H-AQAVKNWMT[S5]TLL[S5]A-NH2; staple 10-14) | 4.6 ± 0.4 µM | 67.3 ± 4.4 µM | –
CC(C)C[C@@H]1NC(=O)[C@H]([C@@H](C)O)NC(=O)[C@H](CCC(=O)O)NC(=O)[C@H]([C@@H](C)O)NC(=O)[C@H](C)NC(=O)[C@H](Cc2c[nH]c3ccccc23)NC(=O)[C@](C)(NC(=O)[C@H](CCCCN)NC(=O)[C@H](Cc2c[nH]c3ccccc23)NC(=O)[C@H](C)NC(=O)[C@H](CCC(N)=O)NC(=O)[C@H](C)N)CCCCCCC=CCCC[C@@](C)(C(=O)N[C@H](C(=O)N[C@@H](C)C(=O)N[C@@H](CC(N)=O)C(N)=O)C(C)C)NC1=O [NYAD-222, AQAWKZWATETLXVAN] (H-AQAWK[R8]WATETL[S5]VAN-NH2; staple 6-13) | 9.3 ± 1.6 µM | > 130 µM | –
Cc1c(O)cccc1C(=O)N[C@@H](CSc1ccccc1)[C@H](O)CN1C[C@H]2CCCC[C@H]2C[C@H]1C(=O)NC(C)(C)C [NFV, nelfinavir, reference compound] | – | – | Infectivity of virus produced by treated cells (HIV-1 IIIB [4]): not infectious or slightly infectious
CSCC[C@@H]1NC(=O)[C@H](Cc2c[nH]c3ccccc23)NC(=O)[C@](C)(NC(=O)[C@H](CCCCN)NC(=O)[C@@H](NC(=O)[C@H](C)NC(=O)[C@H](CCC(N)=O)NC(=O)[C@H](C)N)C(C)C)CCCCCCC=CCCC[C@@](C)(C(=O)N[C@H](C(=O)N[C@@H](C)C(N)=O)C(C)C)NC(=O)[C@H](CC(C)C)NC(=O)[C@H]([C@@H](C)O)NC(=O)[C@H](CCC(=O)O)NC(=O)[C@H]([C@@H](C)O)NC1=O [NYAD-221, AQAVKZWMTETLXVA] (H-AQAVK[R8]WMTETL[S5]VA-NH2; staple 6-13) | 7.97 ± 1.03 µM | > 140 µM | –
CSCC[C@@H]1NC(=O)[C@H](Cc2c[nH]c3ccccc23)NC(=O)[C@@](C)(NC(=O)[C@H](CCCCN)NC(=O)[C@@H](NC(=O)[C@H](C)NC(=O)[C@H](CCC(N)=O)NC(=O)[C@H](C)N)C(C)C)CCCC=CCCC[C@@](C)(C(=O)N[C@H](C(=O)N[C@@H](CC(C)C)C(=O)N[C@@H](CCCCN)C(=O)N[C@H](C(=O)N[C@@H](C)C(=O)N[C@@H](CCC(=O)O)C(N)=O)C(C)C)[C@@H](C)O)NC(=O)[C@H](CCC(=O)O)NC1=O [NYAD-220, AQAVKXWMEXTLKVAE] (H-AQAVK[S5]WME[S5]TLKVAE-NH2; staple 6-10) | > 52.7 µM | > 105 µM | –
